According to the Kinase Knowledgebase extract (Sharma et al. 2016):

Target: PIK3CD (Human) (UniProt O00329)
Test: Assessment of PI3KCD Kinase Activity

Sequence of PIK3CD (Human) (O00329 whole entry, looked up): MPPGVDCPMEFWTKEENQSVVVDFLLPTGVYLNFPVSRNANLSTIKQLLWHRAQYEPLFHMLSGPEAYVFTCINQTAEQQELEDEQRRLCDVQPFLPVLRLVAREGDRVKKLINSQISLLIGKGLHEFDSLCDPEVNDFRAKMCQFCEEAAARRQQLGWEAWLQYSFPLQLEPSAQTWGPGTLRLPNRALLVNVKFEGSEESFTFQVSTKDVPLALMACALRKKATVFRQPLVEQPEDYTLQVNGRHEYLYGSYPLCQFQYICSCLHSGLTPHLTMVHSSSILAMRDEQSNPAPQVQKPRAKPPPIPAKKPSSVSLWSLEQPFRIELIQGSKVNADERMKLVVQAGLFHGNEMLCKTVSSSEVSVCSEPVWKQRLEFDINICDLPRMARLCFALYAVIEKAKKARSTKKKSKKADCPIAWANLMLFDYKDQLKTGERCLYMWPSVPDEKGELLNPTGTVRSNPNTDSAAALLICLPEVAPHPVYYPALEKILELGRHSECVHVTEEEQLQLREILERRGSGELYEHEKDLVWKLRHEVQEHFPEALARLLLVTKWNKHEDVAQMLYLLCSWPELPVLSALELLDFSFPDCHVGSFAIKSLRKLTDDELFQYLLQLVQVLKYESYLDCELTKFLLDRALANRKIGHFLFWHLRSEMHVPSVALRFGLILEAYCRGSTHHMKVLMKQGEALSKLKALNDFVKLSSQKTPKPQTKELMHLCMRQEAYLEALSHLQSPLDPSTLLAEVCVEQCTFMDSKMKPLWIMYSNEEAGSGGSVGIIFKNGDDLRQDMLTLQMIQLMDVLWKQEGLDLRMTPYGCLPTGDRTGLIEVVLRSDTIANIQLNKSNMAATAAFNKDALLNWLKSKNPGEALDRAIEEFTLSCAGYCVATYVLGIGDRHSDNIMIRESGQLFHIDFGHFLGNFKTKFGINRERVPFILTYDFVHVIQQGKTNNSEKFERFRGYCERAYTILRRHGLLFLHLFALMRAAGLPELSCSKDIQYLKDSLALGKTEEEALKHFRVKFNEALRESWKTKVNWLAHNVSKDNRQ

| Structure (SMILES) | IC50 |
| --- | --- |
| Cc1csc2nc(Cn3nc(Br)c4c(N)ncnc43)n(-c3ccccc3Cl)c(=O)c12 | < 100 nM |
| CC(C)n1c(Cn2nc(-c3cc(O)cc(F)c3)c3c(N)ncnc32)cc2ccccc2c1=O | < 100 nM |
| Cc1cccc2cc(Cn3nc(I)c4c(N)ncnc43)n(-c3ccccc3F)c(=O)c12 | < 100 nM |
| Cc1ccccc1-n1c(Cn2nc(-c3cccc(O)c3)c3c(N)ncnc32)nc2cnn(C)c2c1=O | < 100 nM |
| Cc1ccccc1-n1c(Cn2nc(C#CCO)c3c(N)ncnc32)cc2cccc(C)c2c1=O | < 100 nM |
| Cc1ccccc1-n1c(Cn2nc(Cl)c3c(N)ncnc32)nc2scc(C)c2c1=O | < 100 nM |
| Cc1cccc2cc(Cn3nc(-c4cn[nH]c4)c4c(N)ncnc43)n(-c3ccccc3Cl)c(=O)c12 | < 100 nM |
| Cc1ccccc1-n1c(Cn2nc(Br)c3c(N)ncnc32)nc2nccc(C)c2c1=O | < 100 nM |
| Cc1cccc2cc(Cn3nc(-c4cc(O)cc(F)c4)c4c(N)ncnc43)n(-c3ccccc3OCCN3CCOCC3)c(=O)c12 | < 100 nM |
| Cc1csc2nc(Cn3nc(C#CCO)c4c(N)ncnc43)n(-c3ccccc3F)c(=O)c12 | < 100 nM |
| Cc1ccccc1-n1c(Cn2nc(-c3cccc(O)c3)c3c(N)ncnc32)nc2scc(C(F)(F)F)c2c1=O | < 100 nM |
| Cc1cccnc1-n1c(Cn2nc(-c3cc(O)cc(F)c3)c3c(N)ncnc32)cc2ccccc2c1=O | < 100 nM |
| Cc1csc2nc(Cn3nc(-c4ccc(Cl)c(O)c4)c4c(N)ncnc43)n(-c3ccccc3F)c(=O)c12 | < 100 nM |
| CCc1ccccc1-n1c(Cn2nc(C#C[C@@H](C)O)c3c(N)ncnc32)cc2cccc(C)c2c1=O | < 100 nM |
| Cc1cccc2cc(Cn3nc(C#CCO)c4c(N)ncnc43)n(-c3ccccc3F)c(=O)c12 | < 100 nM |
| Cc1ccncc1-n1c(Cn2nc(I)c3c(N)ncnc32)cc2cccc(C)c2c1=O | < 100 nM |
| CCn1c(Cn2nc(-c3cccc(O)c3)c3c(N)ncnc32)cc2cccc(C)c2c1=O | < 100 nM |
| Cc1cccc2cc(Cn3nc(-c4cc(O)cc(F)c4)c4c(N)ncnc43)n(C)c(=O)c12 | < 100 nM |
| CCc1ccccc1-n1c(Cn2nc(C#C[C@@H](C)O)c3c(N)ncnc32)nc2scc(C)c2c1=O | < 100 nM |
| Cc1cccc2cc(Cn3nc(-c4cccc(O)c4)c4c(N)ncnc43)n(-c3ccccc3F)c(=O)c12 | < 100 nM |
| Cc1ccccc1-n1c(Cn2nc(C#C[C@@H](C)O)c3c(N)ncnc32)nc2scc(C)c2c1=O | < 100 nM |
| Cc1cccc2cc(Cn3nc(I)c4c(N)ncnc43)n(-c3ccccc3OCCN3CCOCC3)c(=O)c12 | < 100 nM |
| Cc1ccnc2nc(Cn3nc(I)c4c(N)ncnc43)n(-c3ccccc3F)c(=O)c12 | < 100 nM |

| Structure (SMILES) | IC50 |
| --- | --- |
| Cc1ccccc1-n1c(Cn2nc(-c3cc(O)cc(F)c3)c3c(N)ncnc32)nc2snc(C)c2c1=O | < 100 nM |
| Cc1cccc2cc(Cn3nc(-c4cc(O)cc(F)c4)c4c(N)ncnc43)n(C3CCOCC3)c(=O)c12 | < 100 nM |
| Cc1cccc2cc(Cn3nc(-c4cccc(O)c4)c4c(N)ncnc43)n(C)c(=O)c12 | < 100 nM |
| Cc1cccc2cc(Cn3nc(I)c4c(N)ncnc43)n(-c3ccccc3Cl)c(=O)c12 | < 100 nM |
| Nc1ncnc2c1c(-c1cccc(O)c1)nn2Cc1cc2cccc(Cl)c2c(=O)n1C1CC1 | < 100 nM |
| Cc1cccc2cc(Cn3nc(-c4ccc(F)c(O)c4)c4c(N)ncnc43)n(-c3ccccc3F)c(=O)c12 | < 100 nM |
| Cc1cccc2cc(Cn3nc(-c4cnn(CCO)c4)c4c(N)ncnc43)n(-c3ccccc3F)c(=O)c12 | < 100 nM |
| Cc1ccccc1-n1c(Cn2nc(I)c3c(N)nccc32)cc2cccc(C)c2c1=O | < 100 nM |
| CC(C)n1c(Cn2nc(-c3cc(O)cc(F)c3)c3c(N)ncnc32)cc2cccc(Cl)c2c1=O | < 100 nM |
| COc1ccccc1-n1c(Cn2nc(I)c3c(N)ncnc32)cc2cccc(C)c2c1=O | < 100 nM |
| Cc1cccc2cc(Cn3nc(C#C[C@@H](C)O)c4c(N)ncnc43)n(C3CCCCC3)c(=O)c12 | < 100 nM |
| Cc1csc2nc(Cn3nc(-c4cc(O)cc(F)c4)c4c(N)ncnc43)n(-c3ccccc3Cl)c(=O)c12 | < 100 nM |
| Nc1ncnc2c1c(I)nn2Cc1cc2cccc(Cl)c2c(=O)n1C1CC1 | < 100 nM |
| Cc1csc2nc(Cn3nc(-c4cccc(O)c4)c4c(N)ncnc43)n(-c3ccccc3Cl)c(=O)c12 | < 100 nM |
| COc1ccccc1-n1c(Cn2nc(C#C[C@@H](C)O)c3c(N)ncnc32)cc2cccc(C)c2c1=O | < 100 nM |
| Cc1cccc2cc(Cn3nc(-c4cn[nH]c4)c4c(N)ncnc43)n(-c3cccc(F)c3)c(=O)c12 | < 100 nM |
| COc1ccccc1-n1c(Cn2nc(C#C[C@@H](C)O)c3c(N)ncnc32)nc2scc(C)c2c1=O | < 100 nM |
| Cc1cccc2cc(Cn3nc(C#C[C@@H](C)O)c4c(N)ncnc43)n(C(C)C)c(=O)c12 | < 100 nM |
| Cc1ccccc1-n1c(Cn2nc(C#C[C@@H](C)O)c3c(N)ncnc32)cc2cccc(C)c2c1=O | < 100 nM |
| Cc1csc2nc(Cn3nc(I)c4c(N)ncnc43)n(-c3ccccc3Cl)c(=O)c12 | < 100 nM |
| Cc1ccccc1-n1c(Cn2nc(-c3cc(O)cc(F)c3)c3c(N)ncnc32)nc2c(C)nn(C)c2c1=O | < 100 nM |
| Cc1csc2nc(Cn3nc(-c4ccc(F)c(O)c4)c4c(N)ncnc43)n(-c3ccccc3F)c(=O)c12 | < 100 nM |
| COc1ccccc1-n1c(Cn2nc(Cl)c3c(N)ncnc32)nc2scc(C)c2c1=O | < 100 nM |

| Structure (SMILES) | IC50 |
| --- | --- |
| Cc1cccc2cc(Cn3nc(C#C[C@@H](C)O)c4c(N)ncnc43)n(C3CCCC3)c(=O)c12 | < 100 nM |
| Cc1ccccc1-n1c(Cn2nc(C#N)c3c(N)ncnc32)cc2cccc(C)c2c1=O | < 100 nM |
| Cc1ccccc1-n1c(Cn2nc(C#C[C@H](C)O)c3c(N)ncnc32)nc2scc(C)c2c1=O | < 100 nM |
| Cc1cccc2cc(Cn3nc(-c4cccc(O)c4)c4c(N)ncnc43)n(C3CCCC3)c(=O)c12 | < 100 nM |
| COc1ccccc1-n1c(Cn2nc(Br)c3c(N)ncnc32)nc2scc(C)c2c1=O | < 100 nM |
| Cc1cccc2cc(Cn3nc(-c4ccc(Cl)c(O)c4)c4c(N)ncnc43)n(C(C)C)c(=O)c12 | < 100 nM |
| Cc1csc2nc(Cn3nc(-c4cccc(O)c4)c4c(N)ncnc43)n(-c3ccccc3F)c(=O)c12 | < 100 nM |
| Cc1ccccc1-n1c(Cn2nc(Br)c3c(N)ncnc32)nc2scc(C(F)(F)F)c2c1=O | < 100 nM |
| Cc1ccccc1-n1c(Cn2nc(-c3cccc(O)c3)c3c(N)nccc32)cc2cccc(C)c2c1=O | < 100 nM |
| Cc1cccc2cc(Cn3nc(-c4cccc(O)c4)c4c(N)ncnc43)n(C3CCC3)c(=O)c12 | < 100 nM |
| CC(C)n1c(Cn2nc(-c3cccc(O)c3)c3c(N)ncnc32)cc2cccc(Cl)c2c1=O | < 100 nM |
| Cc1cccc2cc(Cn3nc(I)c4c(N)ncnc43)n(C(C)C)c(=O)c12 | < 100 nM |
| Cc1ccccc1-n1c(Cn2nc(-c3cc(O)cc(F)c3)c3c(N)nccc32)cc2cccc(C)c2c1=O | < 100 nM |
| Cc1ccccc1-n1c(Cn2nc(Br)c3c(N)ncnc32)nc2scc(C)c2c1=O | < 100 nM |
| Cc1cccc2cc(Cn3nc(I)c4c(N)ncnc43)n(C3CCC3)c(=O)c12 | < 100 nM |
| Cc1cccc2cc(Cn3nc(-c4cn[nH]c4)c4c(N)ncnc43)n(-c3ccccc3F)c(=O)c12 | < 100 nM |
| Cc1ccccc1-n1c(Cn2nc(-c3cccc(O)c3)c3c(N)ncnc32)cc2ccccc2c1=O | < 100 nM |
| Cc1cccc2cc(Cn3nc(C#C[C@@H](C)O)c4c(N)ncnc43)n(-c3ccccc3Cl)c(=O)c12 | < 100 nM |
| Cc1cccc2cc(Cn3nc(-c4cc(O)cc(F)c4)c4c(N)ncnc43)n(C3CCCCC3)c(=O)c12 | < 100 nM |
| CC(C)n1c(Cn2nc(-c3cccc(O)c3)c3c(N)ncnc32)cc2ccccc2c1=O | < 100 nM |
| CC(C)n1c(Cn2nc(-c3cc(O)cc(F)c3)c3c(N)ncnc32)cc2cccc(F)c2c1=O | < 100 nM |
| Cc1ccccc1-n1c(Cn2nc(C#CCO)c3c(N)ncnc32)nc2scc(C)c2c1=O | < 100 nM |
| Nc1ncnc2c1c(-c1cc(O)cc(F)c1)nn2Cc1cc2cccc(F)c2c(=O)n1-c1ccccc1F | < 100 nM |

| Structure (SMILES) | IC50 |
| --- | --- |
| Cc1ccccc1-n1c(Cn2nc(-c3ccc(O)c(F)c3)c3c(N)ncnc32)cc2nccc(C)c2c1=O | < 100 nM |
| Cc1csc2nc(Cn3nc(Cl)c4c(N)ncnc43)n(-c3ccccc3C(F)(F)F)c(=O)c12 | < 100 nM |
| Cc1ccccc1-n1c(Cn2nc(Br)c3c(N)ncnc32)nc2sc(C)c(C)c2c1=O | < 100 nM |
| Cc1cccnc1-n1c(Cn2nc(-c3cccc(O)c3)c3c(N)ncnc32)nc2scc(C)c2c1=O | < 100 nM |
| Cc1csc2nc(Cn3nc(Br)c4c(N)ncnc43)n(-c3ccccc3F)c(=O)c12 | < 100 nM |
| Cc1ccccc1-n1c(Cn2nc(-c3cc(O)cc(F)c3)c3c(N)ncnc32)cc2ncccc2c1=O | < 100 nM |
| Cc1cccc2cc(Cn3nc(C#C[C@@H](C)O)c4c(N)ncnc43)n(C3CC3)c(=O)c12 | < 100 nM |
| Cc1cccc2cc(Cn3nc(-c4cc(O)cc(F)c4)c4c(N)ncnc43)n(C(C)C)c(=O)c12 | < 100 nM |
| Cc1ccccc1-n1c(Cn2nc(-c3cc(O)cc(F)c3)c3c(N)ncnc32)nc2cnn(C)c2c1=O | < 100 nM |
| Cc1cccc2cc(Cn3nc(-c4cccc(O)c4)c4c(N)ncnc43)n(-c3ccccc3OCCN3CCOCC3)c(=O)c12 | < 100 nM |
| Cc1ccnc2cc(Cn3nc(-c4cc(O)cc(F)c4)c4c(N)ncnc43)n(-c3ccccc3F)c(=O)c12 | < 100 nM |
| Cc1csc2nc(Cn3nc(C#C[C@@H](C)O)c4c(N)ncnc43)n(-c3ccccc3C(C)C)c(=O)c12 | < 100 nM |
| Cc1ccccc1-n1c(Cn2nc(Cl)c3c(N)ncnc32)cc2cccc(C)c2c1=O | < 100 nM |
| Cc1csc2nc(Cn3nc(C#C[C@@H](C)O)c4c(N)ncnc43)n(-c3ccccc3C(F)(F)F)c(=O)c12 | < 100 nM |
| C=Cc1nn(Cc2cc3cccc(C)c3c(=O)n2-c2ccccc2C)c2ncnc(N)c12 | < 100 nM |
| Cc1cccc2cc(Cn3nc(C#N)c4c(N)ncnc43)n(-c3ccccc3F)c(=O)c12 | < 100 nM |
| Cc1cccnc1-n1c(Cn2nc(-c3cccc(O)c3)c3c(N)ncnc32)cc2cccc(C)c2c1=O | < 100 nM |
| Cc1cccc2cc(Cn3nc(C#C[C@@H](C)O)c4c(N)ncnc43)n(-c3ccccc3F)c(=O)c12 | < 100 nM |
| Cc1ccccc1-n1c(Cn2nc(Cl)c3c(N)ncnc32)nc2nccc(C)c2c1=O | < 100 nM |
| Cc1ccccc1-n1c(Cn2nc(-c3cc(O)cc(F)c3)c3c(N)ncnc32)nc2scc(C(F)(F)F)c2c1=O | < 100 nM |
| Cc1cccc2cc(Cn3nc(-c4cccc(O)c4)c4c(N)ncnc43)n(C3CCCCC3)c(=O)c12 | < 100 nM |
